According to ChEMBL document CHEMBL3390836, “Mannich- and LedererManasse-based analogues of the natural product S-(+)-curcuphenol as cancer proliferation and migration inhibitors” (Medchemcomm, 2012):

Tests used:
Assay type in all cases: functional
MDA-MB-468 = assay: Cytotoxicity against human MDA-MB-468 cells assessed as cell growth at 10^-7 M after 48 hrs by SRB assay relative to control; conditions: MDA-MB-468, 48 h, read-out: Activity
KM12 = assay: Cytotoxicity against human KM12 cells assessed as cell growth at 10^-7 M after 48 hrs by SRB assay relative to control; conditions: KM12, 48 h, read-out: Activity
SW-620 = assay: Cytotoxicity against human SW620 cells assessed as cell growth at 10^-7 M after 48 hrs by SRB assay relative to control; conditions: SW-620, 48 h, read-out: Activity
IGROV-1 = assay: Cytotoxicity against human IGROV1 cells assessed as cell growth at 10^-7 M after 48 hrs by SRB assay relative to control; conditions: IGROV-1, 48 h, read-out: Activity
SF-539 = assay: Cytotoxicity against human SF539 cells assessed as cell growth at 10^-4 M after 48 hrs by SRB assay relative to control; conditions: SF-539, 48 h, read-out: Activity
[1] = Cytotoxicity against human NCI-ADR-RES cells assessed as cell growth at 10^-7 M after 48 hrs by SRB assay relative to control; conditions: read-out: Activity
786-0 [2] = assay: Cytotoxicity against human 786-0 cells assessed as cell growth at 10^-8 M after 48 hrs by SRB assay relative to control; conditions: 786-0, 48 h, read-out: Activity
LOX IMVI = assay: Cytotoxicity against human LOXIMVI cells assessed as cell growth at 10^-7 M after 48 hrs by SRB assay relative to control; conditions: read-out: Activity
HT-29 = assay: Cytotoxicity against human HT-29 cells assessed as cell growth at 10^-7 M after 48 hrs by SRB assay relative to control; conditions: HT-29, 48 h, read-out: Activity
[3] = Cytotoxicity against human HCT15 cells assessed as cell growth at 10^-7 M after 48 hrs by SRB assay relative to control; conditions: HCT-15, 48 h, read-out: Activity
TK-10 [4] = assay: Cytotoxicity against human TK10 cells assessed as cell growth at 10^-6 M after 48 hrs by SRB assay relative to control; conditions: TK-10, 48 h, read-out: Activity
[5] = Cytotoxicity against human OVCAR5 cells assessed as cell growth at 10^-4 M after 48 hrs by SRB assay relative to control; conditions: OVCAR-5, 48 h, read-out: Activity
SF-268 [6] = assay: Cytotoxicity against human SF268 cells assessed as cell growth at 10^-8 M after 48 hrs by SRB assay relative to control; conditions: SF-268, 48 h, read-out: Activity
SNB-75 = assay: Cytotoxicity against human SNB75 cells assessed as cell growth at 10^-4 M after 48 hrs by SRB assay relative to control; conditions: SNB-75, 48 h, read-out: Activity
U-251 [7] = assay: Cytotoxicity against human U251 cells assessed as cell growth at 10^-4 M after 48 hrs by SRB assay relative to control; conditions: U-251, 48 h, read-out: Activity
MCF7 = assay: Cytotoxicity against human MCF7 cells assessed as cell growth at 10^-8 M after 48 hrs by SRB assay relative to control; conditions: MCF7, 48 h, read-out: Activity
MDA-MB-231 = assay: Cytotoxicity against human MDA-MB-231 cells assessed as cell growth at 10^-6 M after 48 hrs by SRB assay relative to control; conditions: MDA-MB-231, 48 h, read-out: Activity
NCI-H322M = assay: Cytotoxicity against human NCI-H322M cells assessed as cell growth at 10^-8 M after 48 hrs by SRB assay relative to control; conditions: read-out: Activity
[8] = Cytotoxicity against human OVCAR3 cells assessed as cell growth at 10^-6 M after 48 hrs by SRB assay relative to control; conditions: OVCAR-3, 48 h, read-out: Activity
[9] = Cytotoxicity against human OVCAR8 cells after 48 hrs by SRB assay; conditions: OVCAR-8, 48 h; for CC50: read-out: LC50 (the source's name)
[10] = Cytotoxicity against human SKOV3 cells assessed as cell growth at 10^-6 M after 48 hrs by SRB assay relative to control; conditions: SK-OV-3, 48 h, read-out: Activity
Malme-3M = assay: Cytotoxicity against human MALME-3M cells assessed as cell growth at 10^-6 M after 48 hrs by SRB assay relative to control; conditions: read-out: Activity
[11] = Cytotoxicity against human OVCAR4 cells assessed as cell growth at 10^-8 M after 48 hrs by SRB assay relative to control; conditions: OVCAR-4, 48 h, read-out: Activity
SF-268 [12] = assay: Cytotoxicity against human SF268 cells after 48 hrs by SRB assay; conditions: SF-268, 48 h; for CC50: read-out: LC50 (the source's name)
U-251 [13] = assay: Cytotoxicity against human U251 cells after 48 hrs by SRB assay; conditions: U-251, 48 h
786-0 [14] = assay: Cytotoxicity against human 786-0 cells assessed as cell growth at 10^-7 M after 48 hrs by SRB assay relative to control; conditions: 786-0, 48 h, read-out: Activity
TK-10 [15] = assay: Cytotoxicity against human TK10 cells after 48 hrs by SRB assay; conditions: TK-10, 48 h
[16] = Cytotoxicity against human OVCAR5 cells assessed as cell growth at 10^-6 M after 48 hrs by SRB assay relative to control; conditions: OVCAR-5, 48 h, read-out: Activity
SNB-19 = assay: Cytotoxicity against human SNB19 cells assessed as cell growth at 10^-7 M after 48 hrs by SRB assay relative to control; conditions: SNB-19, 48 h, read-out: Activity
HL-60(TB) = assay: Cytotoxicity against human HL-60(TB) cells assessed as cell growth at 10^-4 M after 48 hrs by SRB assay relative to control; conditions: HL-60, 48 h, read-out: Activity
[17] = Cytotoxicity against human PC3 cells assessed as cell growth at 10^-8 M after 48 hrs by SRB assay relative to control; conditions: PC-3, 48 h, read-out: Activity
U-251 [18] = assay: Cytotoxicity against human U251 cells assessed as cell growth at 10^-8 M after 48 hrs by SRB assay relative to control; conditions: U-251, 48 h, read-out: Activity
A549 = assay: Cytotoxicity against human A549 cells assessed as cell growth at 10^-8 M after 48 hrs by SRB assay relative to control; conditions: A549, 48 h, read-out: Activity
HOP-62 = assay: Cytotoxicity against human HOP62 cells assessed as cell growth at 10^-6 M after 48 hrs by SRB assay relative to control; conditions: HOP-62, 48 h, read-out: Activity
[19] = Cytotoxicity against human HCT116 cells after 48 hrs by SRB assay; conditions: HCT-116, 48 h; for CC50: read-out: LC50 (the source's name)
NCI-H460 = assay: Cytotoxicity against human NCI-H460 cells after 48 hrs by SRB assay; conditions: NCI-H460, 48 h; for CC50: read-out: LC50 (the source's name)

Question: With `CC(C)=CCC[C@H](C)c1ccc(C)c(CNCC2CCNCC2)c1O` as the molecule, how does the growth at 0.1 µM (MDA-MB-468) read?
Answer: 77%

Question: What about the growth at 0.1 µM (KM12) of the same molecule?
Answer: 97%

Question: What about the growth at 0.1 µM (SW-620) of the same molecule?
Answer: 95%

Question: And the growth at 0.1 µM (IGROV-1)?
Answer: 97%

Question: What about the growth at 100 µM (SF-539) of the same molecule?
Answer: -77%

Question: And the growth at 0.1 µM [1]?
Answer: 100%

Question: What about the growth at 0.01 µM (786-0 [2]) of the same molecule?
Answer: 93%

Question: What about the growth at 0.1 µM (LOX IMVI) of the same molecule?
Answer: 95%

Question: And the growth at 0.1 µM (HT-29)?
Answer: 105%

Question: What about the growth at 0.1 µM [3] of the same molecule?
Answer: 100%

Question: What about the growth at 1 µM (TK-10 [4]) of the same molecule?
Answer: 99%

Question: And the growth at 100 µM [5]?
Answer: 27%

Question: And the growth at 0.01 µM (SF-268 [6])?
Answer: 97%

Question: And the growth at 100 µM (SNB-75)?
Answer: -32%

Question: And the growth at 100 µM (U-251 [7])?
Answer: -81%

Question: And the growth at 0.01 µM (MCF7)?
Answer: 90%

Question: What about the growth at 1 µM (MDA-MB-231) of the same molecule?
Answer: 104%

Question: What about the growth at 0.01 µM (NCI-H322M) of the same molecule?
Answer: 99%

Question: And the growth at 1 µM [8]?
Answer: 103%

Question: What about the GI50 [9] of the same molecule?
Answer: 4.35 µM

Question: What about the TGI [9] of the same molecule?
Answer: 9.66 µM

Question: What about the CC50 [9] of the same molecule?
Answer: 21.5 µM

Question: What about the growth at 1 µM [10] of the same molecule?
Answer: 104%

Question: What about the growth at 1 µM (Malme-3M) of the same molecule?
Answer: 84%

Question: And the growth at 0.01 µM [11]?
Answer: 100%

Question: And the GI50 (SF-268 [12])?
Answer: 7.12 µM

Question: What about the TGI (SF-268 [12]) of the same molecule?
Answer: > 25 µM

Question: What about the CC50 (SF-268 [12]) of the same molecule?
Answer: > 25 µM

Question: And the GI50 (U-251 [13])?
Answer: 3.72 µM

Question: What about the LC50 (U-251 [13]) of the same molecule?
Answer: 15.9 µM

Question: What about the TGI (U-251 [13]) of the same molecule?
Answer: 7.69 µM

Question: And the growth at 0.1 µM (786-0 [14])?
Answer: 87%

Question: And the GI50 (TK-10 [15])?
Answer: 0.0551 µM

Question: And the LC50 (TK-10 [15])?
Answer: > 25 µM

Question: What about the TGI (TK-10 [15]) of the same molecule?
Answer: 17.8 µM

Question: What about the growth at 1 µM [16] of the same molecule?
Answer: 90%

Question: And the growth at 0.1 µM (SNB-19)?
Answer: 91%

Question: What about the growth at 100 µM (HL-60(TB)) of the same molecule?
Answer: -63%

Question: What about the growth at 0.01 µM [17] of the same molecule?
Answer: 97%

Question: And the growth at 0.01 µM (U-251 [18])?
Answer: 96%

Question: And the growth at 0.01 µM (A549)?
Answer: 101%

Question: What about the growth at 1 µM (HOP-62) of the same molecule?
Answer: 97%

Question: What about the GI50 [19] of the same molecule?
Answer: 5.08 µM

Question: What about the TGI [19] of the same molecule?
Answer: 12.4 µM

Question: And the CC50 [19]?
Answer: > 25 µM

Question: And the GI50 (NCI-H460)?
Answer: 4.45 µM

Question: What about the TGI (NCI-H460) of the same molecule?
Answer: 9.23 µM

Question: And the CC50 (NCI-H460)?
Answer: 19.1 µM

Question: Which results are given for `CC(C)=CCC[C@H](C)c1ccc(C)c2c1OCN(CC1CCNCC1)C2`?
Answer: growth at 0.1 µM (MDA-MB-468): 94%; growth at 0.1 µM (KM12): 99%; growth at 0.1 µM (SW-620): 100%; growth at 0.1 µM (IGROV-1): 107%; growth at 100 µM (SF-539): -93%; growth at 0.1 µM [1]: 98%; growth at 0.01 µM (786-0 [2]): 96%; growth at 0.1 µM (LOX IMVI): 92%; growth at 0.1 µM (HT-29): 112%; growth at 0.1 µM [3]: 91%; growth at 1 µM (TK-10 [4]): 118%; growth at 100 µM [5]: -90%; growth at 0.01 µM (SF-268 [6]): 102%; growth at 100 µM (SNB-75): -99%; growth at 100 µM (U-251 [7]): -87%; growth at 0.01 µM (MCF7): 98%; growth at 1 µM (MDA-MB-231): 99%; growth at 0.01 µM (NCI-H322M): 98%; growth at 1 µM [8]: 105%; GI50 [9]: 18.4 µM; TGI [9]: 34.5 µM; CC50 [9]: 64.6 µM; growth at 1 µM [10]: 100%; growth at 1 µM (Malme-3M): 95%; growth at 0.01 µM [11]: 102%; GI50 (SF-268 [12]): 16.6 µM; TGI (SF-268 [12]): 33.3 µM; CC50 (SF-268 [12]): 66.7 µM; GI50 (U-251 [13]): 2.75 µM; LC50 (U-251 [13]): 31.6 µM; TGI (U-251 [13]): 7.61 µM; growth at 0.1 µM (786-0 [14]): 88%; GI50 (TK-10 [15]): 14.4 µM; LC50 (TK-10 [15]): 59.5 µM; TGI (TK-10 [15]): 29.3 µM; growth at 1 µM [16]: 85%; growth at 0.1 µM (SNB-19): 95%; growth at 100 µM (HL-60(TB)): -73%; growth at 0.01 µM [17]: 102%; growth at 0.01 µM (U-251 [18]): 99%; growth at 0.01 µM (A549): 95%; growth at 1 µM (HOP-62): 90%; GI50 [19]: 7.17 µM; TGI [19]: 21.7 µM; CC50 [19]: 56.3 µM; GI50 (NCI-H460): 5.36 µM; TGI (NCI-H460): 16.6 µM; CC50 (NCI-H460): 43.1 µM
